This passage reports Activity results from ChEMBL document CHEMBL1141549, “Synthesis and antihyperglycemic activity of novel N-acyl-2-arylethylamines and N-acyl-3-coumarylamines” (2008).

Structures are written as SMILES.

The subject of the test is Rattus norvegicus. Nature of the test: Antihyperglycemic activity in sucrose loaded diabetic Sprague-Dawley rat model assessed as reduction of plasma glucose levels at 100 mg/kg, po. Type of test: functional. Set-up: scale not given: the % may be the effect or the level left.

As to `COc1cc(/C=C/C(=O)NCCc2ccc(OC)c(OC)c2)ccc1O`, the Activity turned out to be 30.7%.

On to `COc1ccc(CCNC(=O)/C=C/c2cc(OC)c(OC)c(OC)c2)cc1OC`, for which the Activity is 2.41%. For the compound `COc1ccc(/C=C/C(=O)NCCc2ccc(OC)c(OC)c2)cc1`, the Activity was 19.5%. To `COc1ccc(CCNC(=O)/C=C/c2ccccc2)cc1OC` belongs 20.1%; to `COc1ccc(CCNC(=O)/C=C/c2ccc(F)cc2)cc1OC`, 23.4%. To `COc1ccc(CCNC(=O)/C=C/c2ccc(Cl)cc2)cc1OC` belongs 21.5%. Take `COc1ccc(CCNC(=O)/C=C/c2cccc(C(F)(F)F)c2)cc1OC`: the Activity was found to be 32.8%.

In the case of `O=C(/C=C/c1ccccc1)Nc1cc2ccccc2oc1=O`, the Activity is recorded as 22.3%. For the compound `CC(C)(C)c1cc(C(C)(C)C)c2oc(=O)c(NC(=O)/C=C/c3cccc(C(F)(F)F)c3)cc2c1`, the Activity is on record as 21.1%. The value for `O=C(Nc1cc2ccccc2oc1=O)c1ccccc1` was 10.7%; that for `CC(C)(C)c1cc(C(C)(C)C)c2oc(=O)c(NC(=O)c3ccccc3)cc2c1` was 23.3%; that for `COc1cccc(/C=C/C(=O)NCCc2ccc(OC)c(OC)c2)c1` was 25.2%. The value for `CC(C)(C)c1cc(C(C)(C)C)c2oc(=O)c(NC(=O)/C=C/c3ccccc3)cc2c1` was 8.89%; that for `COc1ccc(Cl)cc1C(=O)NCCc1ccc(S(=O)(=O)NC(=O)NC2CCCCC2)cc1` [GLYBURIDE] was 33.7%. The value for `CN(C)C(=N)NC(=N)N` [METFORMIN] was 12.9%.
